Measurements taken from PubChem BioAssay (NCI).
Where “and” joins values, the source holds several entries; their conditions need not be identical. Equal values may be shown once.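 The compound was tested at five concentrations on cells cultured in 96-well plates, with a 48-hour exposure period. The concentration for 50% growth inhibition is given as GI50. TGI: total growth inhibition.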

Experiments:
Assay in all cases: DTP human tumour cell line panel, 48 h
[1] = system: CCRF-CEM leukemia
[2] = system: DLD-1 colon
[3] = system: HOP-92 NSCLC
[4] = system: SF-295 CNS
[5] = system: SK-MEL-2 melanoma
[6] = system: SN12C renal
[7] = system: TK-10 renal
[8] = system: UACC-257 melanoma
[9] = system: M19-MEL melanoma
[10] = system: MDA-MB-435

Compound | TGI [1] | GI50 [2] | TGI [2] | TGI [3] | TGI [4] | TGI [5] | GI50 [6] | TGI [6] | TGI [7] | TGI [8] | GI50 [1] | GI50 [9] | TGI [9] | GI50 [4] | GI50 [5] | GI50 [7] | GI50 [8] | GI50 [3] | GI50 [10] | TGI [10]
O=c1cccccc1[O-].O=c1cccccc1[O-].O=c1cccccc1[O-].[Sm+3] | > 100 µM | 18 µM | > 100 µM | > 100 µM | > 100 µM | > 100 µM | 26.8 µM | > 100 µM | > 100 µM | > 100 µM |  |  |  |  |  |  |  |  |  | 
CC(=O)[O-].[Mn+3].[O-]c1ccc(Cl)cc1C=NCCN=Cc1cc(Cl)ccc1[O-] | > 100 µM | 36.9 µM | > 100 µM |  | > 100 µM | > 100 µM | > 100 µM | > 100 µM | > 100 µM | > 100 µM | 22.2 µM | > 100 µM | > 100 µM | > 100 µM | > 100 µM | > 100 µM | > 100 µM |  |  | 
CCOc1ccccc1NC(=O)C1=C(C)NC(C)=C(C(=O)Nc2ccccc2OCC)C1c1ccc([N+](=O)[O-])cc1 |  |  | > 100 µM | > 100 µM | > 100 µM | > 100 µM |  | > 100 µM |  | > 100 µM |  |  | > 100 µM |  |  |  |  |  |  | 
COC(=O)c1sc(=NC(=S)N2CCCCC2)sc1C(=O)OC | > 100 µM |  | > 100 µM |  |  | > 100 µM |  | > 100 µM | > 100 µM | > 100 µM |  |  | > 100 µM |  |  |  |  |  |  | 
COc1ccc2c(c1)[n+](=O)c(C(C)=O)c(C)n2[O-] |  |  | > 100 µM | > 100 µM | > 100 µM | > 100 µM |  | > 100 µM | > 100 µM | > 100 µM |  |  | > 100 µM |  |  |  |  |  |  | 
CC(=O)OCC1OC(n2c(=S)n(-c3ccccc3)c(=O)c3cc(Br)cc(Br)c32)C(OC(C)=O)C(OC(C)=O)C1OC(C)=O (stereo not given) | > 100 µM |  | > 100 µM | 63.3 µM and > 100 µM | 71.4 µM and > 100 µM | > 100 µM |  | > 100 µM |  | > 100 µM |  |  | > 100 µM | 11.7 µM and 60.3 µM |  |  | 46.6 µM and > 100 µM | 15.3 µM and 46.9 µM |  | 
COc1cc(OC)cc(-c2ccc(-c3ccc(C(=N)N)cn3)s2)c1 | 7.29 µM |  |  | 3.52 µM | 3.39 µM | 40.3 µM | 1.78 µM | 3.8 µM | 4.09 µM | 4.49 µM | 2.71 µM |  |  | 1.79 µM | 19.5 µM | 2.06 µM | 2.29 µM | 1.7 µM | 1.73 µM | 3.15 µM
O=c1nc2[nH]c3c(-c4n[nH]c(=O)[nH]c4=O)cccc3c2n[nH]1 | > 100 µM |  |  | > 100 µM | > 100 µM | > 100 µM | > 100 µM | > 100 µM | > 100 µM | > 100 µM | > 100 µM |  |  | > 100 µM | > 100 µM | > 100 µM | > 100 µM | 78.1 µM | > 100 µM | > 100 µM
CC1OC(OC2C(O[C@H]3CC[C@@]4(C)C(=CC[C@H]5[C@@H]6C[C@@H]7O[C@]8(CC[C@@H](C)CO8)[C@@H](C)[C@@H]7[C@@]6(C)CC[C@@H]54)C3)OC(CO)C(OC3OC(CO)C(O)C3O)C2O)C(O)C(O)C1O (stereo not given in full) | 0.413 µM |  |  | 1.98 µM and 2.46 µM | 1.53 µM and 1.62 µM | 1.82 µM and 2.78 µM | 0.243 µM | 1.22 µM and 0.678 µM | 2.85 µM and 2.24 µM | 1.71 µM and 2.35 µM |  |  |  | 0.448 µM | 1.46 µM |  | 1.14 µM | 1.22 µM | 0.434 µM | 2 µM and 1.57 µM
